Source: patent US20040009967A1, “Pyridyl alkene- and pyridyl alkine- acid amides as cytostatics and immuno-suppressives” (Klinge Pharma GmbH, priority 1996, published 2004)
Like-named read-outs stand apart in the source and are kept apart here.

Tests used:
[1] = system: HepG2 cells; experiment: Growth inhibition of HepG2 cells, six days of incubation, sulforhodamin-B-method; type: cell-based, human; conditions: six days of substance incubation, read-out: IC50-value (concentration in which the cell growth was inhibited by 50%)
Method: HepG2 cells plated at a density of 20,000 cells/ml in 12-well plastic dishes. Cultivation occured in Richters IMEM-ZO nutrient medium with 5% fetal calf serum (FCS) in a tissue culture incubator with a gas mixture of 5% CO2 and 95% air at a temperature of 37° C. One day after plating, the culture medium was aspirated from the cells and replaced by fresh medium which contained the respective concentrations of the test substances. For the individual concentrations and the controls without test substances, three-fold batches were done for each. Three days after the beginning of treatment, the medium was again renewed with the test compounds. After six days of substance incubation, the test was ended and the protein amount in the individual wells was determined with the sulforhodamin-B-method (according to P. Skehan et al.: New Colorimetric Cytotoxity Assay for Anticancer-Drug Screening. J. Natl. Cancer Inst. 82: 1107-1112, 1990). The IC50-values (defined as that concentration in which the cell growth was inhibited by 50%) was taken from the dose-response curves and given as a comparative measurement for the activity of the test compounds.

[2] = system: lymphocytes from the spleen of a Swiss mouse; experiment: Immunosuppressing activity: vitality of freshly isolated spleen lymphocytes, flow-through cytometer; type: cell-based; conditions: 2 days incubation, read-out: IC50 (percentage amount of vital cells)
Excerpt: Many anti-tumor agents have not only a cytotoxic effect on tumor cells, but also on the blood cell system. This leads to a weakening of the immune defence, which can, in turn, be specifically employed to suppress the rejection reaction after an organ transplantation for example. Therefore, a use of the main compounds, optionally in combination with other compounds effective for these indications is suitable in diseases such as psoriasis or autoimmune diseases. In order to test the possibility for a therapeutic use in illnesses of this type, the substance activity was tested on freshly isolated lymphocytes as follows:
The spleen of a Swiss mouse served as a lymphocyte source. The lymphocyte population was isolated from the spleen cell suspension over a ficoll gradient and taken up in IMEM-ZO culture medium with 0,1% dextran 70,000 and 2% fetal calf serum. The cells were plated at a density of ca. 500,000 cells/well/ml in a 12-well plate, 1 ml doubly concentrated test substance solution was pipetted per well and this was subsequently incubated in a tissue culture incubator at 37° C. and 5% CO2. After 2 days, a 1 ml-aliquot with 5 μl of the fluorescent dye solutions propidium iodide (8 mg/ml) and 3,3′-dihexyloxacarbocyanin iodide (40 μg/ml) each was added per well, and incubated for 3 minutes at room temperature. Subsequently, 10,000 cells per each sample were measured on a flow-through cytometer and the percentage amount of vital cells in the population was determined. By means of the dose-response curves, IC50-values were calculated which were also employed in the following Tables for the characterization of the individual substances: […]

SMILES	melting point	IC50 ([1]; Homo sapiens, 144 h)	IC50 ([2]; Lymphocyte, 48 h)	other results
O=C(C=Cc1cccnc1)NCCCCC1CCN(C2c3ccccc3CSc3ccccc32)CC1 (stereo not drawn) [Substance 136, N-{4-[1-(6,11-dihydro-dibenzo[b,e]thiepin-11-yl)-piperidin-4-yl]-butyl}-3-(pyridin-3-yl)-acrylamide]	89 to 91 °C	2 nM	–	–
O=C(C=Cc1cccnc1)NCCCCC1CCN(C(=O)c2ccccc2)CC1 [Substance 159, N[4-(1-benzoylpiperidin-4-yl)-butyl]-3-(pyridin-3-yl)-acrylamide]	–	–	–	IC50 [2]: 3 nM; IC50 [1]: 0.5 nM
O=C(C=Cc1cccnc1)NCCCCC1CCN(S(=O)(=O)c2ccc3ccccc3c2)CC1 [Substance 219, N-{4-[1-(2-naphthyl-sulfonyl)-piperidin-4-yl]-butyl}-3-(pyridin-3-yl)-acrylamide]	85 to 87 °C	–	–	–

The next lines start with results.

melting point	IC50 ([1]; Homo sapiens, 144 h)	IC50 ([2]; Lymphocyte, 48 h)	SMILES	other results
161 °C	–	0.2 nM	O=C(C=Cc1cccnc1)NCCCCC1CCN(C(=O)C(c2ccccc2)c2ccccc2)CC1 [Substance 150, N-[4-(1-diphenylacetyl-piperidin-4-yl)-butyl]-3-(pyridin-3-yl)-acrylamide]	–
–	0.7 nM	–	O=C(C=Cc1cccnc1)NCCCCC1CCN(C(=O)c2cccc3c2-c2ccccc2C3=O)CC1 [Substance 178, N-{4-[1-(9-oxo-9H-fluoren-4-yl-carbonyl)-piperidin-4-yl]-butyl}-3-(pyridin-3-yl)-acrylamide]	–
198 to 200 °C	–	2 nM	O=C(C=Cc1cccnc1)NCCCCC1CCN(C(=O)Nc2cccc3ccccc23)CC1 [Substance 195, N-{4-[1-(1-naphthylaminocarbonyl)-piperidin-4-yl]-butyl}-3-(pyridin-3-yl)-acrylamide]	–
–	1 nM	0.04 nM	O=C(C=Cc1cccnc1)NCCCCC1CCN(C(=O)N(c2ccccc2)c2ccccc2)CC1 [Substance 199, N-{4-[1-(diphenylaminocarbonyl)-piperidin-4-yl]-butyl}-3-(pyridin-3-yl)-acrylamide]	–
